Read-outs that look alike come from different tables or passages of the source.
How the values were obtained:
[1] = Solubility of TSC in water with gamma-cyclodextrin; type: physicochemical; conditions: TSC and gamma-cyclodextrin
[2] = Solubility of TSC formulated with cyclodextrin and mannitol; type: physicochemical; conditions: formulated with a cyclodextrin and mannitol
From the text: A trans carotenoid such as TSC can be formulated with a cyclodextrin as noted above and a non-metabolized sugar such as mannitol (e.g. d-mannitol to adjust the osmotic pressure to be the same as that of blood). […] This solution can be added to isotonic saline or to other isotonic solutions in order to dilute it and still maintain the proper osmolality.

[3] = Absorption into the blood stream after intramuscular injection of TSC with gamma cyclodextrin; type: in vivo; conditions: injected intramuscularly, rats
From the text: The solutions need not be equal-molar.

[4] = after hemorrhagic shock in rats; cited from earlier work
[5] = cited from earlier work
[6] = cited from earlier work; remark: listed apart in the source

| Structure (SMILES) | TSC concentration reached in aqueous solution [1] | TSC concentration of solutions that can be made [2] | absorption into the blood stream [3] | whole-body oxygen consumption [4] | oxygen levels, arterial and tissue ([5]; hypoxemic states) | oxygen levels, arterial and tissue ([5]; normoxic states) | diffusivity of oxygen through plasma ([6]; plasma) | diffusivity of oxygen in water [6] |
| --- | --- | --- | --- | --- | --- | --- | --- | --- |
| CC(/C=C/C=C(\C)C(=O)[O-])=C\C=C\C=C(C)\C=C\C=C(/C)C(=O)[O-].[Na+].[Na+] [TSC, trans sodium crocetinate] | ≤ 44 milligrams of TSC per ml of solution | over 20 mg TSC/ml of solution | Absorption is quick | increase whole-body oxygen consumption | increases oxygen levels | does not | increases the diffusivity of oxygen through plasma | increase the diffusivity of oxygen in water |
| CC(/C=C/C=C(\C)C(=O)O)=C\C=C\C=C(C)\C=C\C=C(/C)C(=O)O [crocetin, reference compound] | – | – | – | – | – | – | – | increase the diffusivity of oxygen in water |

Source: US20230181509A1, “THE USE OF DIFFUSION ENHANCING COMPOUNDS FOR TREATMENT OF VIRAL AND BACTERIAL INDUCED RESPIRATORY DISEASE” (DIFFUSION PHARMACEUTICALS LLC, priority 2020, published 2023)
